# Measured values published in ChEMBL document CHEMBL1201862, “PubChem BioAssay data set” (2004).
# Calls of active or inactive are those of the source.
# Tested on: not listed separately
# Assay: microbe, parasite or virus in culture
# Format: functional
# Conditions: Mycobacterium tuberculosis
row,SMILES,CC50
1,CCCCCCCNC(=O)c1ccc(N2CCC3(CC2)OCCO3)c([N+](=O)[O-])c1,> 40 µM (active)
2,CCN(CC)C(=O)[C@H]1CC(CC(=O)NCC23C[C@H]4C[C@@H](C2)C[C@@H](C3)C4)C(=O)N2CCc3c([nH]c4ccccc34)[C@]12C (stereo not given in full),30.8 µM (active)
3,C=CCNC(=O)c1onc(CCl)c1C(=O)OC,> 40 µM (active)
4,CC1=NN(C(N)=S)C(=O)C1N=Nc1ccc(C)c(Br)c1 (stereo not given),> 40 µM (active)
5,CCCOc1cccc(-c2nn(-c3ccccc3)cc2/C=C(\C#N)C(=O)NCCCn2ccnc2)c1,> 40 µM (active)
6,CCCc1cc(=O)n2nc(C)c(-c3ccc(Cl)cc3)c2[nH]1,39.5 µM (active)

# Target: T1, Replicative DNA helicase DnaB (Mycobacterium tuberculosis, UniProt P9WMR3)
# T1 sequence (P9WMR3 whole entry): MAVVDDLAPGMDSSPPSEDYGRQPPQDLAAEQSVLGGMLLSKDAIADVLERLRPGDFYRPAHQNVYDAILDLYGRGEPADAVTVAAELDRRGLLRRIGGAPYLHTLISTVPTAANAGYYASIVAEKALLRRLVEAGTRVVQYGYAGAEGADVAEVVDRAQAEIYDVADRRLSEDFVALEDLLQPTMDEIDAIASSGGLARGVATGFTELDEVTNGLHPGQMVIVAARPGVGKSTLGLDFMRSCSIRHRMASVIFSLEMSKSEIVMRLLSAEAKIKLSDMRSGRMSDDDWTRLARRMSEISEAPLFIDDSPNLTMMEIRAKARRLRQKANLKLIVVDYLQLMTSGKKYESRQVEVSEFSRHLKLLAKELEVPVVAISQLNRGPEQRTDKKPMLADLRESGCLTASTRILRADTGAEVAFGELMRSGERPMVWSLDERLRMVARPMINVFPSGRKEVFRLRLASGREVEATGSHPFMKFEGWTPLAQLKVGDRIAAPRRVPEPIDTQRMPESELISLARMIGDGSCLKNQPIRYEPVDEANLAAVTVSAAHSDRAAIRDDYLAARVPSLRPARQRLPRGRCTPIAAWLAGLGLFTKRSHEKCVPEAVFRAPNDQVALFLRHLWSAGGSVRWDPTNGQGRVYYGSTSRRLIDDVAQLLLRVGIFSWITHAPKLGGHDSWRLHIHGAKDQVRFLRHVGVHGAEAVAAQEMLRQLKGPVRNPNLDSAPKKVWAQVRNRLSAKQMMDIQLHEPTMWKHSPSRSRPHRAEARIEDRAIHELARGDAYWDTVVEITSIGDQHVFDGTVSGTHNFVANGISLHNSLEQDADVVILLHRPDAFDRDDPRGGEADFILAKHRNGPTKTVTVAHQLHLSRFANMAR
# Assay: DnaB intein splicing inhibitors, dose response, biochemical, cell-free fluorescence (AID 449749)
# Format: functional
# Conditions: not given
row,SMILES,AC50
1,COC(=O)c1ccc(C(c2c(C)n[nH]c2O)c2c(C)n[nH]c2O)cc1,3.35 µM (active)

# Target: T2, Heat shock factor protein 1 (Mus musculus, UniProt P38532)
# T2 sequence (P38532 whole entry): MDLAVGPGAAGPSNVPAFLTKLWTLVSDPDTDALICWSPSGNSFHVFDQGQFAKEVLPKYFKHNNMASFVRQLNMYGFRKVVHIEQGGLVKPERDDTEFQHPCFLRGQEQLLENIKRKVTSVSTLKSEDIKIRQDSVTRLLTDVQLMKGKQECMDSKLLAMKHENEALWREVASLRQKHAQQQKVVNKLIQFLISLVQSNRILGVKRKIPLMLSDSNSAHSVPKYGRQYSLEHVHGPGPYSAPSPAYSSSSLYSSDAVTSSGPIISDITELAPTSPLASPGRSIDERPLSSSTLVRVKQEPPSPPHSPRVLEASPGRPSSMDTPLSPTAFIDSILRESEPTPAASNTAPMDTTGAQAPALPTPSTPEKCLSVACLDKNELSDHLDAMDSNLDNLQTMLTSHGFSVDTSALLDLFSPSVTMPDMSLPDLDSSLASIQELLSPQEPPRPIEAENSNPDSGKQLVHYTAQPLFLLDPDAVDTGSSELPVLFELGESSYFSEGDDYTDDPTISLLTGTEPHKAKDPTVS
# Assay: inhibition of MG132-induced HSE-luciferase signal, confirmation, cell-based, NIH3T3, luminescence, dose retest (AID 2382);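 also: NIH3T3 fibroblasts with HSF1-driven luciferase reporter stressed by proteasome inhibitor MG132; luminescence from HSF1-driven luciferase expression after 8 hours of MG132 stress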
# Format: functional
# Conditions: not given
row,SMILES,EC50
1,COc1ccc(CCNC(=O)c2ccc(N(C)S(=O)(=O)c3ccc(C)cc3)cc2)cc1,> 195 µM (not active)
2,O=C(CSc1nccn1Cc1ccco1)Nc1cccc(F)c1,> 195 µM (not active)
3,O=C(NCC1CCCN(C2Cc3ccccc3C2)C1)c1cccs1 (stereo not given),> 195 µM (not active)
4,O=C(Nc1cccc(F)c1)c1cc(-c2ccco2)nc2ccccc12,> 195 µM (not active)
5,CCOC(=O)c1ccc(NC(=S)Nc2ccccc2N)cc1,> 195 µM (not active)
6,COc1cc2c(cc1OC)C(C(=O)NC1CC1)C1c3ccccc3CCN1C2=O (stereo not given),> 195 µM (not active)
7,CCc1ccccc1-n1c(SCC(=O)Nc2ccc3c(c2)OCCO3)nc2nncc-2c1O,3.04 µM (active)
8,CCOC(=O)C1=C(CN2CCN(C(=O)c3ccco3)CC2)NC(=O)NC1c1ccc(OC)cc1 (stereo not given),> 195 µM (not active)

# Tested on: H9c2;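 also: confirmatory concentration-response retest of ultra-high-throughput screening hits for modulation of myocardial damage; cell death induced by hydrogen peroxide oxidative stress; compound pretreatment for 60 min then peroxide exposure for 2 h; potency is for protecting the cells against peroxide damage rather than for killing them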
# Assay: cells
# Format: functional, cell-based
# Conditions: Rattus norvegicus, H9c2, Myocardium
row,SMILES,IC50
1,CC(OC(=O)Cn1[nH]c(=O)c2ccccc2c1=O)C(=O)Nc1ccccc1[N+](=O)[O-] (stereo not given),> 79 µM (inactive)
2,Cc1ccc(Nc2nc(N)nc(O)c2N=O)cc1,12.1 µM (active)
3,COc1ccc(NC(=O)c2cc(-c3ccc(OC)c(OC)c3)nc3ccccc23)c(OC)c1,> 79 µM (inactive)
4,Cc1noc(C)c1COC(=O)COc1ccc2c(C)cc(=O)oc2c1,13.5 µM (active)
5,CCn1cc(C(=O)Nc2cccc(NC(C)=O)c2)c2cc(OC)c(OC)cc2c1=O,20.3 µM (active)
6,CCN(CCO)c1ncnc2c1sc1nc(C(C)C)c3c(c12)CC(C)(C)OC3,> 79 µM (inactive)
7,CN(C)C(=O)/C=C\c1cn(-c2ccccc2)nc1-c1ccc2c(c1)OCCO2,> 79 µM (inactive)
8,Cn1c2c(c(=O)n(C)c1=O)C(c1cccc([N+](=O)[O-])c1)Nc1ccccc1O2 (stereo not given),> 79 µM (inactive)
9,CCN(CC(=O)Nc1cc(Cl)ccc1C)C(=O)CCc1nc(O)c2ccccc2n1,> 79 µM (inactive)
10,NC(=O)c1nsc(C(=O)N(c2ccccc2)C(C(=O)NC2CCCC2)c2ccc3ncccc3c2)c1N (stereo not given),> 79 µM (inactive)
11,COc1cc(-c2cnc3c(NC=O)cc(-c4ccsc4)cn23)cc(OC)c1OC,> 79 µM (inactive)
12,O=C1NC(=O)c2c(Br)c(Br)c(Br)c(Br)c21,> 79 µM (inactive)
13,CCOC(=O)C1=C(COC(=O)/C=C/c2ccc(F)cc2)NC(=O)NC1C (stereo not given),> 79 µM (inactive)
14,COc1ccc(-c2cc(NC=O)c3ncc(-c4ccc(C(C)=O)cc4)n3c2)cn1,> 79 µM (inactive)
15,COc1cccc(/C=N/NC(=O)c2oc3nc(-c4ccccc4)cc(-c4ccco4)c3c2N)c1,> 79 µM (inactive)

# Target: Paired box protein Pax-8 (Homo sapiens, UniProt Q06710)
# Assay: inhibitors of PAX8-driven TPO luciferase reporter, dose response, RMG-I cells, cherry-pick (AID 687027);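 also: luciferase reporter driven by Pax8 target thyroperoxidase promoter measured by SteadyGlo luminescence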
# Format: functional, cell-based
# Conditions: not given
# Chain of Paired box protein Pax-8 (Q06710 whole entry): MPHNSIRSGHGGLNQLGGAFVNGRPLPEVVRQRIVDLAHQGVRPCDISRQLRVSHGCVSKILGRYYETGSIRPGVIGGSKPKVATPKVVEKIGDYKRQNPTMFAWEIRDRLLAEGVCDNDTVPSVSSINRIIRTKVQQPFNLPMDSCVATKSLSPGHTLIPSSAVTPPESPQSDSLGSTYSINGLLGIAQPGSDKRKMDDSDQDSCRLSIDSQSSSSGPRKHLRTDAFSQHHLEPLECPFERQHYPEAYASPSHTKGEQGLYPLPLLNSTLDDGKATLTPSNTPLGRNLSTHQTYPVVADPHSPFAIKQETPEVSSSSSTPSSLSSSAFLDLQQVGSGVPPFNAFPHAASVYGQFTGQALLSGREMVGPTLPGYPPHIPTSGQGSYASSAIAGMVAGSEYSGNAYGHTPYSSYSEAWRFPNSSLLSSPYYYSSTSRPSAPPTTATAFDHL
row,SMILES,AC50
1,COc1cc2c(c(OC)c1OC)-c1ccc(SC)c(=O)cc1C(NC(=O)C(F)(F)F)CC2 (stereo not given),< 0.26 µM (active)
2,COc1cccc(C(c2nnnn2Cc2ccccc2)N2CCC(n3c(O)nc4ccccc43)CC2)c1OC (stereo not given),5.5 µM (active)

# Target: T3, Streptokinase A (Streptococcus pyogenes serotype M1, UniProt P10520)
# T3 sequence (P10520 whole entry): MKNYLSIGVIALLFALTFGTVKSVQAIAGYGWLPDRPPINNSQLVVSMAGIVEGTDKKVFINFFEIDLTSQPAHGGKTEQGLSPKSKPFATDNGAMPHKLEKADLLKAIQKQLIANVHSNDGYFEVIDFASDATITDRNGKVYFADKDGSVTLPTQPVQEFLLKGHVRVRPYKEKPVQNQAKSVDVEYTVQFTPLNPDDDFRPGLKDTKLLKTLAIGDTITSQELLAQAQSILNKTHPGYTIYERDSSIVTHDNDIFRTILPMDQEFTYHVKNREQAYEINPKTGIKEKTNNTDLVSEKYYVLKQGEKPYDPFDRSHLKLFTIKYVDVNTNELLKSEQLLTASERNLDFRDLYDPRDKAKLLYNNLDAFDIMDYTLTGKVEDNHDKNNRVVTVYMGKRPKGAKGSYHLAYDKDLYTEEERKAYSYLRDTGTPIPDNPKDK
# Assay: S. pyogenes streptokinase expression inhibitors, potency, dose response, plasminogen activation absorbance, OD405 (AID 1914);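 also: secreted streptokinase activity via plasminogen activation per viability signal from cell pellet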
# Format: functional, Streptococcus pyogenes M1 GAS
# Conditions: not given
row,SMILES,EC50
1,CCCc1cc(=O)n2nc(C)c(-c3ccc(Cl)cc3)c2[nH]1,> 150 µM (not active)

# Tested on: not listed separately
# Assay: HEp-2 cell cytotoxicity, dose response, cytotoxicity control for RSV inhibitor project, HTS (AID 2410)
# Format: functional
# Conditions: human respiratory syncytial virus
row,SMILES,CC50
1,Cc1nn(C)c(C(=O)Nc2cccc(Nc3ccccc3)c2)c1[N+](=O)[O-],23.1 µM (active)
2,O=C(/C=C/c1ccc2c(c1)OCCCO2)c1ccc2ccccc2c1O,30.7 µM (active)
3,O=C1c2ccccc2C(=O)N1CCCCN(C(=O)c1ccc(Cl)s1)c1ccc(Cl)cc1,24 µM (active)
4,Cc1nn2c(-c3cccnc3)ccnc2c1-c1ccccc1,41.2 µM (active)
5,CCCc1nc(NCCO)c(C#N)c2c1CCCC2,15.7 µM (active)
6,CCOC1OC(O)=C(Cl)/C1=N\c1cc(C)ccc1C (stereo not given),29.2 µM (active)
7,Sc1nnc(C2CCCCC2)n1/N=C/C(Cl)=C\c1ccccc1,15.2 µM (active)

# Tested on: Streptococcus
# Assay: Group A Streptococcus viability loss, dose response, counter-screen for streptokinase expression inhibitor project, luminescence, BacTiterGlo (AID 1915);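 also: potency for reduction of bacterial viability or growth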
# Format: functional, organism-based
# Conditions: not given
row,SMILES,EC50
1,CCCc1cc(=O)n2nc(C)c(-c3ccc(Cl)cc3)c2[nH]1,11.3 µM (active)

# Tested on: Streptococcus sp. 'group A'
# Assay: growth inhibition of control SK(-) GAS strain, dose response, counter-screen for streptokinase expression inhibitor project, luminescence, kanamycin, BacTiterGlo, confirmation (AID 1900)
# Format: functional, organism-based
# Conditions: not given
row,SMILES,EC50
1,CCCc1cc(=O)n2nc(C)c(-c3ccc(Cl)cc3)c2[nH]1,3.37 µM (active)

# Target: T4, Protein RecA (Mycobacterium tuberculosis, UniProt P9WHJ3)
# T4 sequence (P9WHJ3 whole entry): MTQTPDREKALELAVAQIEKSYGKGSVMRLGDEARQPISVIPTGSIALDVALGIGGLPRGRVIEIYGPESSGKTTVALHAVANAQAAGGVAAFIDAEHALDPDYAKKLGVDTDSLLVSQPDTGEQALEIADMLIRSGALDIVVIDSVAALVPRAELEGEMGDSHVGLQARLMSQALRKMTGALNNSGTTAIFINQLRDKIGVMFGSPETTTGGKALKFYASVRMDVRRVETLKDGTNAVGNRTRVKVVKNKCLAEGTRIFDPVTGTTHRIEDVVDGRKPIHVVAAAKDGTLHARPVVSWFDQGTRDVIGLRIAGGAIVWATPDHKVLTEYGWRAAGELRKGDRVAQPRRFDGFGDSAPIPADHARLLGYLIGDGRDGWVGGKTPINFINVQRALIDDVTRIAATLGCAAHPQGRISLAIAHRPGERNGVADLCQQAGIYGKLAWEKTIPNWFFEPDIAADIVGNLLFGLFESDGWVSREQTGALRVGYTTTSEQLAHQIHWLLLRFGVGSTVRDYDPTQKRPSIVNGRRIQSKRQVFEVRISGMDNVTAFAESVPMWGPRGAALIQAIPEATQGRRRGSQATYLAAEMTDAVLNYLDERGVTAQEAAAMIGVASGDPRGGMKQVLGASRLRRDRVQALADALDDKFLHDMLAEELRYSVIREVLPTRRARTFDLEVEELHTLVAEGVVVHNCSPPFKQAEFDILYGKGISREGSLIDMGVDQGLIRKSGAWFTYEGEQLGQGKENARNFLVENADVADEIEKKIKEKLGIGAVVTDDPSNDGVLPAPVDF
# Assay: Fluorescence Cell-Free Homogeneous Dose Retest to Identify Inhibitors of RecA-Intein Splicing Activity. [Related pubchem assays (depositor defined):AID2097, AID2223, AID489010, AID492950]
# Format: functional
# Conditions: not given
row,SMILES,EC50
1,COC(=O)c1ccc(C(c2c(C)n[nH]c2O)c2c(C)n[nH]c2O)cc1,1.94 µM (active)

# Tested on: not listed separately
# Assay: Luminescence Cell-Based Dose Retest to Confirm Inhibitors of Cancer Stem Cells. [Related pubchem assays (depositor defined):AID2717, AID2721]
# Format: functional
# Conditions: Homo sapiens
row,SMILES,AC50
1,O=C(/C=C/c1ccc2c(c1)OCCCO2)c1ccc2ccccc2c1O,5.21 µM (active)
2,Sc1nnc(C2CCCCC2)n1/N=C/C(Cl)=C\c1ccccc1,5.5 µM (active)
